The source of these data is patent US11964941B2, “5-Bromo-indirubins” (City of Hope, priority 2014, dated 2024).

For one test, the system named is MV4-11 AML cells. Briefly: MTS cell viability, MV4-11 AML cells (FLT3-ITD). The format is cell-based, human. The settings on record: 48 h, read-out: IC50 for 50% inhibition of viability. Here is the method:
(§1) MTS assays were performed for cell viability. Human cancer cells were seeded in 96-well plates (2500 cells/well for solid tumors, 5000 cells/well for blood tumors), incubated overnight at 37 C in 5% CO2, and exposed to 5IN-1NH1 or 5IN-1NH1s in a dose-dependent manner for 48 h. See FIGS. 1A-1B, 2A-2B, 3, 4A-4B, and 6A-6B. Dimethyl sulfoxide (DMSO) was used as the vehicle control. Viable cell numbers were determined by tetrazolium conversion to its formazan dye and absorbance was measured at 490 nm using an automated ELISA plate reader. Each experiment was performed in quadruplicate. IC50 values were determined using CalcuSyn software (BIOSOFT®, Cambridge GB).
Compound (1289) inhibits viabilities of MV4-11 and MOLM13 AML cells that harbor an internal tandem duplication (ITD) mutation. MTS assays were performed for cell viability. Human MV4-11 and MOLM13 AML cells (5000/well) were seeded in 96-well plates, incubated overnight at 37° C. in 5% CO2, and exposed to compound (1289) in a dose-dependent manner for 48 h. Dimethyl sulfoxide (DMSO) was used as the vehicle control. Viable cell numbers were determined by tetrazolium conversion to its formazan dye and absorbance was measured at 490 nm using an automated ELISA plate reader. Each experiment was performed in quadruplicate. IC50 values were determined using CalcuSyn software.

The subject of another test is A549 lung cancer cells. Briefly: MTS cell viability, A549 lung cancer cells. In kind it is cell-based, human. The settings on record: 48 h, read-out: IC50 for 50% inhibition of viability. Here is the method: as §1
A further test has as its target ABL1 (Homo sapiens, UniProt P00519). Briefly: Kinase profiling in vitro, ABL1. In kind it is biochemical. The settings on record: recombinant ABL1, 33P-ATP, 120 min. Here is the method: (§2) The kinase assays were performed with recombinant proteins. Briefly, proteins, freshly prepared substrates and ^33P-ATP (specific activity 0.01 μCi/μl final) were mixed in reaction buffer (20 mM HEPES pH 7.5, 10 mM MgCl2, 1 mM EGTA, 0.02% Brij35, 0.02 mg/ml BSA, 0.1 mM Na3VO4, 2 mM DTT) in the presence of DMSO as control or 5IN-1NH1s. The mixtures were reacted for 120 min at room temperature. Samples were transferred onto P81 ion exchange paper and filters were extensively washed with 0.75% phosphoric acid. The radioactivities were monitored. IC50 values were determined using GraphPad Prism software.

Test [1] has as its system T315I ABL1 mutant KCL22 CML cells. Briefly: MTS cell viability, T315I ABL1 mutant KCL22 CML cells. The format is cell-based, human. The following applies: T315I ABL1 mutant KCL22 CML cells, MTS, 48 h; read-out: IC50 for 50% inhibition of viability. The procedure:
as §1
Human DU145 prostate cancer, A2058 melanoma, SKOV3 ovarian cancer and T315I ABL1 mutant KCL22 CML cells were seeded in 96-well plates (2500 cells/well for solid tumors, 5000 cells/well for blood tumors), incubated overnight at 37° C. in 5% CO2, and exposed to 5IN-6NC1, 5IN-1NH1, 5IN-6NNC6, or 5IN-6NNC7 in a dose-dependent manner for 48 h. Dimethyl sulfoxide (DMSO) was used as the vehicle control. Viable cell numbers were determined by tetrazolium conversion to its formazan dye and absorbance was measured at 490 nm using an automated ELISA plate reader. Each experiment was performed in quadruplicate. IC50 values were determined using CalcuSyn software.

A further test concerns the target GSK3β (Homo sapiens, UniProt P49841). Briefly: Kinase profiling in vitro, GSK3β. The settings on record: recombinant GSK3β, 33P-ATP, 120 min. In kind it is biochemical. The procedure:
as §2

Another test addresses BRAF (Homo sapiens, UniProt P15056). In words: Kinase profiling in vitro, BRAF. The following applies: recombinant BRAF, 33P-ATP, 120 min. The format is biochemical. The procedure: as §2
A further test addresses IGF1R (Homo sapiens, UniProt P08069). In words: Kinase profiling in vitro, IGF1R. In kind it is biochemical. The following applies: recombinant IGF1R, 33P-ATP, 120 min. Here is the method: as §2
Another test addresses PDGFR α (Homo sapiens, UniProt P16234). In words: In vitro kinase assay, recombinant PDGFR α. In kind it is biochemical. The settings on record: 33P-ATP, 120 min. The procedure:
(§3) Compound (1289) inhibits activities of FMS, PDGFR α, PDGFR β and c-KIT in vitro. The kinase assays were performed with recombinant FMS, PDGFR α, PDGFR β and c-KIT proteins. Briefly, proteins, freshly prepared substrates and ^33P-ATP (specific activity 0.01 μCi/μl final) were mixed in reaction buffer (20 mM HEPES pH 7.5, 10 mM MgCl2, 1 mM EGTA, 0.02% Brij35, 0.02 mg/ml BSA, 0.1 mM Na3VO4, 2 mM DTT) in the presence of DMSO as control or compound (1289). The mixtures were reacted for 120 min at room temperature. Samples were transferred onto P81 ion exchange paper and filters were extensively washed with 0.75% phosphoric acid. The radioactivities were monitored.
as §2, with “recombinant class III receptor tyrosine kinase family” for “recombinant”

The test system of test [2] is FLT3. Briefly: In vitro kinase assay, recombinant FLT3. The format is biochemical. The settings on record: recombinant class III receptor tyrosine kinase family proteins. The procedure:
as §2, with “recombinant class III receptor tyrosine kinase family” for “recombinant”
as §2, with “Kinase” for “The kinase”, “FLT3, mutated FLT3-ITD and D835I mutant FLT3 kinases.” for “proteins.”, “compound (1289).” for “5IN-1NH1s.”

Test [3] concerns the target FLT3 (Homo sapiens, UniProt P36888). Briefly: In vitro kinase assay, recombinant FLT3. In kind it is biochemical. The following applies: recombinant FLT3, 33P-ATP, 120 min. Here is the method: as §2, with “recombinant class III receptor tyrosine kinase family” for “recombinant”
as §2, with “Kinase” for “The kinase”, “FLT3, mutated FLT3-ITD and D835I mutant FLT3 kinases.” for “proteins.”, “compound (1289).” for “5IN-1NH1s.”

The test system of test [4] is MDA-MB-231 breast cancer cells. Briefly: MTS cell viability, MDA-MB-231 breast cancer cells. The format is cell-based, human. The following applies: 48 h, read-out: IC50 for 50% inhibition of viability. Here is the method:
as §1

For another test, the target named is PDGFR β (Homo sapiens, UniProt P09619). Briefly: In vitro kinase assay, recombinant PDGFR β. In kind it is biochemical. The following applies: 33P-ATP, 120 min. Here is the method:
as §3
as §2, with “recombinant class III receptor tyrosine kinase family” for “recombinant”

pIC50: −log10 of the molar value.

Chain of ABL1 (P00519 whole entry): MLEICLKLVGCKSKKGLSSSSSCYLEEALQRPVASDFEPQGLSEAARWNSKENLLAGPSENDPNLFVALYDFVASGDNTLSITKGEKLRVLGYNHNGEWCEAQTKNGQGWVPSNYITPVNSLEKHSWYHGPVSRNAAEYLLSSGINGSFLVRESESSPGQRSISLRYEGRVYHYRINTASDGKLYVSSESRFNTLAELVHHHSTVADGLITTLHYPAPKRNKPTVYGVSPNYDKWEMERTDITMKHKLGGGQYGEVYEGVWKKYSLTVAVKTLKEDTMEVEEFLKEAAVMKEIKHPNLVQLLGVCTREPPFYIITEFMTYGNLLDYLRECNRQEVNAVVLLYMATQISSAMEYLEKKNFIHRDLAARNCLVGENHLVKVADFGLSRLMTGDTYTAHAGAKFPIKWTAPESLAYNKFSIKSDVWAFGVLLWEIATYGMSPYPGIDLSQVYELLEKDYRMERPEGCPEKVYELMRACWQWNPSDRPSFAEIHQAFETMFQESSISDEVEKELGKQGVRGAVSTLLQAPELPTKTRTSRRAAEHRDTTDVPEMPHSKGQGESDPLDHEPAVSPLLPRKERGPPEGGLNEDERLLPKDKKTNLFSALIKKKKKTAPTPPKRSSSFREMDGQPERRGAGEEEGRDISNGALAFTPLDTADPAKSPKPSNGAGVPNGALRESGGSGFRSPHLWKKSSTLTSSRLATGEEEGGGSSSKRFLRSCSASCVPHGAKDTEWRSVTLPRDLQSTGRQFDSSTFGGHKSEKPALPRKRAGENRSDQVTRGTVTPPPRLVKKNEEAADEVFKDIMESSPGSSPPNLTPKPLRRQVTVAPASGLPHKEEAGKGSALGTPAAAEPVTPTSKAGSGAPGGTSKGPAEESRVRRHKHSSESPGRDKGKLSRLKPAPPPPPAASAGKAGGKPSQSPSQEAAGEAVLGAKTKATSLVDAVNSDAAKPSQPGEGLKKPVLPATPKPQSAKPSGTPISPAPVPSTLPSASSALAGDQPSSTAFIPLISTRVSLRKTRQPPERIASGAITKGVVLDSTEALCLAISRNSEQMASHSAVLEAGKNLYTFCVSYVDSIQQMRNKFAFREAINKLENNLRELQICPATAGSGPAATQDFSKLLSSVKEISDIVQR
Chain of GSK3β (P49841 whole entry, species assumed): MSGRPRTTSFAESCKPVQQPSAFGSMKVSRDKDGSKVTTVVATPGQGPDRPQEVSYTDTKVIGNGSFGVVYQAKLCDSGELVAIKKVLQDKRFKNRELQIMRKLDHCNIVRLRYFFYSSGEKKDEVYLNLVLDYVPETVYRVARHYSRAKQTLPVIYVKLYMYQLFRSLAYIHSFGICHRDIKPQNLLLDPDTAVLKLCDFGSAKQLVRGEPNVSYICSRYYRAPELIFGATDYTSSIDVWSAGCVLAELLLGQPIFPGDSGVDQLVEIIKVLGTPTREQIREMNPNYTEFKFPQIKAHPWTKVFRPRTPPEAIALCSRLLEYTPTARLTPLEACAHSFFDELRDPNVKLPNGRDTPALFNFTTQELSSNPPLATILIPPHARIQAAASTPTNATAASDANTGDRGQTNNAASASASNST
Chain of IGF1R (P08069 31-1367, species assumed): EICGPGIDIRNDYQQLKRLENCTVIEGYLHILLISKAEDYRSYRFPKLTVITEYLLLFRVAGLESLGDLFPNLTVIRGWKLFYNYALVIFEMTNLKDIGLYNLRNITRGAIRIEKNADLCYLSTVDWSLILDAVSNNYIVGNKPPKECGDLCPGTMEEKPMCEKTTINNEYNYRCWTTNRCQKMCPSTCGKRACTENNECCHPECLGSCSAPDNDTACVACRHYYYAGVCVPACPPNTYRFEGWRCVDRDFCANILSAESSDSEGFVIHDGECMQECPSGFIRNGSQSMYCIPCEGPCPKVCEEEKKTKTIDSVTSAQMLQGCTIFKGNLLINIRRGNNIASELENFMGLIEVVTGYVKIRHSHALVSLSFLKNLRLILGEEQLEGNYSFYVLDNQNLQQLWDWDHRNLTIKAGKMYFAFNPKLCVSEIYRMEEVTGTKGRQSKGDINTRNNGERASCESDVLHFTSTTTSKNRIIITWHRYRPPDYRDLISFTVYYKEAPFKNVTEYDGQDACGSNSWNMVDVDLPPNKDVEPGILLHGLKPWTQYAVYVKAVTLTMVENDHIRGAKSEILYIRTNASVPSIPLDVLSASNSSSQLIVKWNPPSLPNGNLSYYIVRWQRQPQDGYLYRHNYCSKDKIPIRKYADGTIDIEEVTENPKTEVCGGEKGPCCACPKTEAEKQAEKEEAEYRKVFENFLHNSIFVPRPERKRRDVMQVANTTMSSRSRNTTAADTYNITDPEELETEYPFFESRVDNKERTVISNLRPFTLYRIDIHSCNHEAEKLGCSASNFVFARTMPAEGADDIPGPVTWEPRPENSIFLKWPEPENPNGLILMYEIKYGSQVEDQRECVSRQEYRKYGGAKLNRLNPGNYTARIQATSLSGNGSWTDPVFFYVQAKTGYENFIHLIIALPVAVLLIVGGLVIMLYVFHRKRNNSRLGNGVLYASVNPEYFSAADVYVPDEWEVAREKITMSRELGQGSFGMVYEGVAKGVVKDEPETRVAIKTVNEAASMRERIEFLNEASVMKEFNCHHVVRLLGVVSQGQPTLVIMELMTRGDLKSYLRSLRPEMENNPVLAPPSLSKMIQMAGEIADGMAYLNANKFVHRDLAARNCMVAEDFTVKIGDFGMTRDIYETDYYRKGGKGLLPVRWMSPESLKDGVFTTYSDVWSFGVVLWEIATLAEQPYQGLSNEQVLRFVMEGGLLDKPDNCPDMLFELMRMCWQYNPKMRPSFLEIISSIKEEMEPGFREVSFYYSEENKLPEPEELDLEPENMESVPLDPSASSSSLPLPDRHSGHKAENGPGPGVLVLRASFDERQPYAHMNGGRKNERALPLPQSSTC
Chain of BRAF (P15056 whole entry, species assumed): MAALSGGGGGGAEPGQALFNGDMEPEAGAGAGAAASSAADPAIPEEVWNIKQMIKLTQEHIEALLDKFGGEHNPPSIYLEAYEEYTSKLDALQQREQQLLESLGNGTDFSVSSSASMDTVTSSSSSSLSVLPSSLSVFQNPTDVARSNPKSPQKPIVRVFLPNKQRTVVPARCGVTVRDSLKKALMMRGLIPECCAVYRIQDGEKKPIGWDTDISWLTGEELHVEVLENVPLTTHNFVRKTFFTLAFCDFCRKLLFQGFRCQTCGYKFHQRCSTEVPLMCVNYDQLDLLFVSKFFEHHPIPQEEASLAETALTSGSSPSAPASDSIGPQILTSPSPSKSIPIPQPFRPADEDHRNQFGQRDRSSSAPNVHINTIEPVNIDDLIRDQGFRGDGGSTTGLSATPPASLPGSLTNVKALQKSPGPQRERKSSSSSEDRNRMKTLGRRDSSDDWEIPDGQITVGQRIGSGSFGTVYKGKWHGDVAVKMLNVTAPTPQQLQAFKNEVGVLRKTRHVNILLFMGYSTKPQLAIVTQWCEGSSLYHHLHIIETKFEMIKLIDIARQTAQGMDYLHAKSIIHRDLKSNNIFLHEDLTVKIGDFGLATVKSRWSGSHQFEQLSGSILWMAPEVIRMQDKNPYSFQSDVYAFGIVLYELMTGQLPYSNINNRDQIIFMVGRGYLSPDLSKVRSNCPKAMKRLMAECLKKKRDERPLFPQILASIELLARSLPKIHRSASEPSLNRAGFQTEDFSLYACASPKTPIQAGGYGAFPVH
Chain of PDGFR β (P09619 33-1106, species assumed): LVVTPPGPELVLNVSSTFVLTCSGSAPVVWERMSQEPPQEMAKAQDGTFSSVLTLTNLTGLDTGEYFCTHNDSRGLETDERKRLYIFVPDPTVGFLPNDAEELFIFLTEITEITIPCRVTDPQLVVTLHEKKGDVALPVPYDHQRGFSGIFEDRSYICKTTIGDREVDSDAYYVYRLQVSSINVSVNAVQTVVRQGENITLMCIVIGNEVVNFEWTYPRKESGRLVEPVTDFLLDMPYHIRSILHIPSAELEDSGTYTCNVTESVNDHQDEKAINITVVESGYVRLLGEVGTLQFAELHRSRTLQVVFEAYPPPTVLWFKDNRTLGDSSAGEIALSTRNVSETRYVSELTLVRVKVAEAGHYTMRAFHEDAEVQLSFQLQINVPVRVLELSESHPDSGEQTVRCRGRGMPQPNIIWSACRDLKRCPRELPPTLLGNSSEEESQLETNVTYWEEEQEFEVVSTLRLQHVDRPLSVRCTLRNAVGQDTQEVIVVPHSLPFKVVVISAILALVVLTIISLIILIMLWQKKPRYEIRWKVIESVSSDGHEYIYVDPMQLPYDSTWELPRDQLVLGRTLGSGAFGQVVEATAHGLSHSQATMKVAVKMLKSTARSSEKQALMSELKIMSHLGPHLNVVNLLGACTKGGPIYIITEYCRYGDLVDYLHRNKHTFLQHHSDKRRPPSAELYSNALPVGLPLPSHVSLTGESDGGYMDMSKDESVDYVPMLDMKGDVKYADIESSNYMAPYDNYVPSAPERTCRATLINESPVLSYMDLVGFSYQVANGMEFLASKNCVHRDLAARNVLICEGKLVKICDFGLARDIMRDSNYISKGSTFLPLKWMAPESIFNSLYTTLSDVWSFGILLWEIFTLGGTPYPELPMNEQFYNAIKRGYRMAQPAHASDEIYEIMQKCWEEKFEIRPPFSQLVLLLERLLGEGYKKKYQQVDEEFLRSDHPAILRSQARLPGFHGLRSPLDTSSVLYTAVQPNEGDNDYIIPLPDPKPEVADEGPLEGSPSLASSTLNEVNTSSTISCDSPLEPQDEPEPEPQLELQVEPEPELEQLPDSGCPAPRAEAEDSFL

Consider `CNCCO/N=C1/C(=C2/C(=O)Nc3ccc(Br)cc32)Nc2ccccc21` [5IN-1NH1s], for which the negative logarithm of the IC50 (pIC50) (usually −log10 of the IC50, conventionally taken in molar units) in the test with MV4-11 AML cells was 8.43; in the test with A549 lung cancer cells, 7.34; at ABL1, 6.36; in test [1] it was 7.28; on GSK3β, 8.93; on BRAF, 5.13. Also, the negative logarithm of the IC50 (pIC50) at IGF1R is 7.50; at PDGFR α, 7.14; at FLT3 [3] it was 8.86; in test [4], 7.48; on PDGFR β, 8.04. For the same molecule, the “selectivity for FLT3 and mutated FLT3 kinases within class III receptor tyrosine kinase family” value in the test with FLT3 [2] is “selectively inhibits”.
